Biological target: T1, aspartate N-acetyltransferase (ANAT) (Homo sapiens, UniProt Q8N9F0)
T1 construct: 6xHis (C); made in house; host or cells: E. coli BL21(DE3)
T1 sequence (Q8N9F0 1-302): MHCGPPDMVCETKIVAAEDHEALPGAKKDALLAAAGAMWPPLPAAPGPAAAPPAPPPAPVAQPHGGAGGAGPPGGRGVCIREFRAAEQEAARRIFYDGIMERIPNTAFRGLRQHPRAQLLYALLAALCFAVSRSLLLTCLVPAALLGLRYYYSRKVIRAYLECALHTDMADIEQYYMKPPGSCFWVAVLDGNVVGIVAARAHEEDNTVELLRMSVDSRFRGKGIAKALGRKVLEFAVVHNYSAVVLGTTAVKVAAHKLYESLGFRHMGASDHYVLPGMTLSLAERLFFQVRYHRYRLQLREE
Experiment: ANAT in vitro activity assay (DTNB, coenzyme A production)
Type: biochemical
Conditions: for Ki: dose-response protocol, competitive inhibition fit, Km for L-aspartate 160 μM; for potency against ANAT: dose-response protocols, in words
Experimental: The experimental assay was based on a custom protocol developed by the Viola lab described previously (see, e.g., Thangavelu et al., 2017, “Design and optimization of aspartate N-acetyltransferase inhibitors for the potential treatment of Canavan disease,” Bioorganic & Medicinal Chemistry, 25(3), pp. 870-885). Each of the purchased compounds was tested in an initial screen at 1 mM, followed by a second screen of the initial inhibitors at 50 μM.
The challenge of solubilizing and purifying the membrane-associated enzyme ANAT has been addressed through the creation of a fusion construct with maltose binding protein (MBP) as a fusion partner, as described previously. Briefly, aspartate ANAT was expressed with an N-terminal MBP tag in E. coli BL21(DE3) cells. A 6×His-tag was inserted at the C-terminal of the enzyme to facilitate purification. 20 ml LB media was grown overnight from a single colony in the presence of kanamycin at a final concentration of 50 μg/ml at 37° C. The overnight culture was then diluted into 2 L LB media and grown with shaking at 37° C. until the OD600 reached 0.6. Isopropyl β-D-thiogalactopyranoside (IPTG) was then added at a final concentration of 0.1 mM for induction, and cell growth continued at 16° C. for 16-20 hours. The cell culture was harvested by centrifugation at 11,000 rpm for 15 min. The cells were then resuspended in binding buffer consisting of 20 mM potassium phosphate, pH 7.4, 300 mM NaCl, 20 mM imidazole, and 10% glycerol. The cells were lysed by adding lysozyme (50 μg/ml of buffer) and DNAse (5 μg/ml of buffer) in an ultrasonic dismembrator, followed by clarification of the cells by centrifugation at 11,000 rpm to remove the insoluble cell debris. The clarified supernatant was loaded onto a Ni-NTA column and eluted with a 20-300 mM imidazole gradient in the binding buffer using an AKTA chromatography system. The fractions containing active enzyme purified from the Ni-NTA column were pooled and loaded onto a dextrin-Sepharose column for further purification. The MBP-ANAT fusion enzyme was eluted from this column by using a 0-10 mM maltose gradient. SDS-PAGE gel was run to confirm the molecular weight and purity of the enzyme.
ANAT activity was measured by monitoring the production of coenzyme A using 5,5′-dithio-bis-[2-nitrobenzoic acid] (DTNB). […] The increasing absorption at 412 nm was monitored for up to 30 min during the reaction. 10% DMSO was maintained in the first screen while 20% DMSO was used in the second screen to dissolve the insoluble or partially soluble compounds in the assay wells.
Ki was calculated using the competitive inhibition routine within the nonlinear regression module of GraphPad Prism 8.3.0 with the following equation: […]
where Km for L-aspartate was set to 160 μM, and [I] and [S] denote the concentrations of the inhibitor and substrate, respectively.

Row | SMILES | Ki | potency against ANAT
1 | CCOC(=O)c1sc(NC(=O)COC(=O)Cn2c(=O)cnc3ccccc32)cc1C [Formula 2, Ethyl 3-methyl-5-{2-[(2-oxo-1H-quinoxalin-1-yl)acetoxy]acetylamino}-2-thenoate] | 8.5 µM | low-micromolar
2 | Cc1nnc(SCc2nnc(-c3c(-c4ccccc4)noc3C)o2)s1 [Formula 3, 5-(5-Methyl-3-phenyl-4-isoxazolyl)-2-[(5-methyl-1,3,4-thiadiazol-2-ylthio)methyl]-1,3,4-oxadiazole] | 9.1 µM | low-micromolar
3 | Cc1c(C(=O)O)sc2[nH]c(=O)cc(CSc3nnc(C4CC4)[nH]3)c12 [Formula 4, 4-[(5-Cyclopropyl-4H-1,2,4-triazol-3-ylthio)methyl]-3-methyl-6-oxo-1-thia-7-aza-7H-indene-2-carboxylic acid] | 4.5 µM | low-micromolar

Continued by falling Ki, values first:

Row | Ki | potency against ANAT | SMILES
4 | 8.2 µM | low-micromolar | Nc1cc(N)nc(SCc2ncc(-c3ccc(F)cc3)o2)n1 [Formula 1, 2-{[5-(p-Fluorophenyl)-1,3-oxazol-2-yl]methylthio}-4,6-pyrimidinediamine]
5 | 0.91 µM | low-micromolar | O=C(OCCSc1ccc([N+](=O)[O-])c2nonc12)c1ccc(Cl)cc1Cl [Formula 5, 2-(7-Nitro-2,1,3-benzofurazan-4-ylthio)ethyl 2,4-dichlorobenzoate]
